This note sets out measurements from ChEMBL document CHEMBL4842390, “Amino-Heterocycle Tetrahydroisoquinoline CXCR4 Antagonists with Improved ADME Profiles via Late-Stage Buchwald Couplings” (ACS Med Chem Lett, 2021).

Each structure is given as a SMILES string. Some results are limits rather than exact numbers.

Data set [1] is described as follows: Permeability of the compound at pH 7.4 incubated for 4 hrs by PAMPA. The format is ADME. The conditions noted are these: read-out: permeability.
The next data set in a line: cells. To be noted: Homo sapiens, CCRF-CEM.
Another data set has as its target Cytochrome P450 2D6 (Homo sapiens, UniProt P10635). Nature of the data set: Inhibition of human recombinant CYP2D6 expressed in insect cells using AMMC as substrate preincubated for 30 mins followed by NADPH regenerating system addition and measured after 45 mins by fluorescence based assay. It is filed as ADME.
A short description of data set [2]: Metabolic stability in human liver microsomes assessed as parent compound remaining incubated for 10 mins in presence of NADPH. The format is ADME, Microsome. The conditions noted are these: read-out: Stabilty. For orientation: Microsomes from liver hold many membrane-bound enzymes, among them those of drug oxidation.
For a further data set, the target named is Cytochrome P450 3A4 (Homo sapiens, UniProt P08684). Briefly: Inhibition of CYP3A4 (unknown origin). The format is ADME.
Cytochrome P450 3A4, sequence (P08684 whole entry): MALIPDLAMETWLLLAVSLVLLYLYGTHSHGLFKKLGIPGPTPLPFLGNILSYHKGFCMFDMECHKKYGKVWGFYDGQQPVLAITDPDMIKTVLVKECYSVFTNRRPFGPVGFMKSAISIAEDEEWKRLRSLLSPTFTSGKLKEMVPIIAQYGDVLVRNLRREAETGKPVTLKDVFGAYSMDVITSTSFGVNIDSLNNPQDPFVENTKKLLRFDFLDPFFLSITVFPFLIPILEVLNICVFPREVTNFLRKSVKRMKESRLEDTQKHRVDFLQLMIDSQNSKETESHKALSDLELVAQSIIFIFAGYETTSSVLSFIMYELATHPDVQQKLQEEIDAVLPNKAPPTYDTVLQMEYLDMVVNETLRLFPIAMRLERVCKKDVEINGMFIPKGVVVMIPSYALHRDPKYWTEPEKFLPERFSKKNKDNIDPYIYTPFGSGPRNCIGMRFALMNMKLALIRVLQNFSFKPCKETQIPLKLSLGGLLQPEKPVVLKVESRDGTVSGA
Data set [3] concerns the target C-X-C chemokine receptor type 4 (Homo sapiens, UniProt P61073). Nature of the data set: Antagonist activity at CXCR4 receptor in human CCRF-CEM cells assessed as inhibition of SDF-1alpha-induced calcium release preincubated for 25 mins followed by SDF-1alpha addition and monitered for 90 sec. The format is functional, cell-based.
Data set [4] can be described thus: Metabolic stability in rat liver microsomes assessed as parent compound remaining incubated for 10 mins in presence of NADPH. The format is ADME, Microsome. To be noted: read-out: Stabilty.
Data set [5] is described as follows: Metabolic stability in mouse liver microsomes assessed as parent compound remaining incubated for 10 mins in presence of NADPH. The conditions noted are these: read-out: Stabilty. The format is ADME, Microsome.
The target of the next data set is Cytochrome P450 2C9 (Homo sapiens, UniProt P11712). Briefly: Inhibition of CYP2C9 (unknown origin). The format is ADME.
Cytochrome P450 2C9, sequence (P11712 whole entry): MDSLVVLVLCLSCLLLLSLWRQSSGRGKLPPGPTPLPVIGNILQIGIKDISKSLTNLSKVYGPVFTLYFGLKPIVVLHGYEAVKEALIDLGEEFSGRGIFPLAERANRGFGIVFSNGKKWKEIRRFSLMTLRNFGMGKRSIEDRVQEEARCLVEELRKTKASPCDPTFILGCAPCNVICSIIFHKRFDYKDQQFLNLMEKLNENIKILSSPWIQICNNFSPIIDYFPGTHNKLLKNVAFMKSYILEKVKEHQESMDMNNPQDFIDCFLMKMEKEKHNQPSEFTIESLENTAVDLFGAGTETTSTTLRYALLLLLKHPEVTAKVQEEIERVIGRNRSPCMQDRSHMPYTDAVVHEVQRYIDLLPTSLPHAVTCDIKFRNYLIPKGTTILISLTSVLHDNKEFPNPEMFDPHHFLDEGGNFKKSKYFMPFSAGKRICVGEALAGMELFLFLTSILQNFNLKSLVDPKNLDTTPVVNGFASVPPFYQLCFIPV
The nature of data set [6]: Oral bioavailability in CD-1 mouse at 30 mg/kg measured upto 8 hrs by UPLC-MS/MS analysis. The format is ADME, organism-based. To be noted: in vivo.
Data set [7] in a line: Volume of distribution in CD-1 mouse at 30 mg/kg, po or at 3 mg/kg, iv by UPLC-MS/MS analysis. The format is ADME, organism-based. To be noted: in vivo.
Data set [8] can be described thus: AUC (0 to 8 hrs) in CD-1 mouse at 30 mg/kg, po or at 3 mg/kg, iv measured up to 8 hrs by UPLC-MS/MS analysis. It is filed as ADME, organism-based. To be noted: in vivo. Also on record: dose 30 mg/kg, time <=8.
A short description of data set [9]: Half life in CD-1 mouse at 30 mg/kg, po or at 3 mg/kg, iv by UPLC-MS/MS analysis. To be noted: in vivo.

C-X-C chemokine receptor type 4, sequence (P61073 whole entry): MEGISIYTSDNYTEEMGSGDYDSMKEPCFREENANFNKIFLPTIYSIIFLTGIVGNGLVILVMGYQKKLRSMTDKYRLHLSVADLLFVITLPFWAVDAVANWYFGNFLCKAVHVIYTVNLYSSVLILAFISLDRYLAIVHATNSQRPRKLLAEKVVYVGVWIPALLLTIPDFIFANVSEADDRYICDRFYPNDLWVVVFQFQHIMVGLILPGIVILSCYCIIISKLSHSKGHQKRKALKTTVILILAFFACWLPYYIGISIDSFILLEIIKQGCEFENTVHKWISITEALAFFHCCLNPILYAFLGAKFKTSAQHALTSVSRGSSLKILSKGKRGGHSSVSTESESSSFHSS
Cytochrome P450 2D6, sequence (P10635 whole entry): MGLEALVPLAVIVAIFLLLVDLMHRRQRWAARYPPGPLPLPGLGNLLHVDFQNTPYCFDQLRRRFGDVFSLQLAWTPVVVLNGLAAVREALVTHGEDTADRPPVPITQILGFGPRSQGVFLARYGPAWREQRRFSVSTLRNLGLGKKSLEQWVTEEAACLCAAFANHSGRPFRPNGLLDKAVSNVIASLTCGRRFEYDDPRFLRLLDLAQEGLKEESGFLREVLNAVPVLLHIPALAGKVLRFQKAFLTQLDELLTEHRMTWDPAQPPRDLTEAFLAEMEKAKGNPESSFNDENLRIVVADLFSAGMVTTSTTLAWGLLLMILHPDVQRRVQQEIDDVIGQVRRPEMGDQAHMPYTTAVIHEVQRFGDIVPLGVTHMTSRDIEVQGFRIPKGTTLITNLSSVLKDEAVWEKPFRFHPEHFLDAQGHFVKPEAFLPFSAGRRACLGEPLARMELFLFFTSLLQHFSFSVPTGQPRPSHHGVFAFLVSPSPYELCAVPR
Description for cells: Antagonist activity at muscarinic acetylcholine receptor in human CCRF-CEM cells assessed as inhibition of acetylcholine-induced calcium release preincubated for 25 mins followed by acetylcholine addition and monitered for 90 sec

As for `CN1CCC(N(C)c2cccc3c2C[C@H](CN(C)[C@H]2CCCc4cccnc42)NC3)CC1`, the Papp at 4 h in data set [1] stood at 1 ×10⁻⁶ cm/s. The IC50 (as a rule, the concentration needed to halve the response being measured) in “cells” was over 16.7 µM; on Cytochrome P450 2D6, over 20 µM; on Cytochrome P450 3A4 it was over 20 µM; in [3], 0.0134 µM. In addition, the remaining at 10 min in data set [2] came out at 88.8%; in data set [4], 6.52%.
With `CN(C)C1CCN(c2cccc3c2C[C@H](CN(C)[C@H]2CCCc4cccnc42)NC3)C1` (single isomer, unassigned; 36), the remaining at 10 min in [5] turned out to be 28.2%; in [4], 3.88%. For the same compound, in data set [1], the Papp at 4 h was 1.4 ×10⁻⁶ cm/s. Moreover, the IC50 in “cells” was over 5.56 µM; on Cytochrome P450 2D6 it was 3.67 µM; against Cytochrome P450 3A4, over 20 µM; in data set [3] it was 0.0104 µM.
Consider `CN(C[C@@H]1Cc2c(cccc2NC2CCNCC2)CN1)[C@H]1CCCc2cccnc21`, for which the remaining at 10 min in data set [5] was 12.4%; in data set [2], 79.9%; in data set [4], 26.2%. In addition, the 50% inhibitory concentration (IC50) in the data set “cells” is over 16.7 µM; at Cytochrome P450 2D6 it was over 20 µM; on Cytochrome P450 3A4, over 20 µM; in [3], 1.67 µM.
As to `CN(C)C1CCN(c2cccc3c2C[C@H](CN(C)[C@H]2CCCc4cccnc42)NC3)CC1`, the remaining at 10 min in data set [5] amounted to 70.2%; in [2] it was 78.4%; in data set [4], 52.4%. Besides, the Papp at 4 h in [1] worked out at 4.4 ×10⁻⁶ cm/s. Also, the IC50 at Cytochrome P450 2C9 is 6.67 µM; in “cells” it was over 16.7 µM; on Cytochrome P450 2D6, over 20 µM; against Cytochrome P450 3A4, over 20 µM; in [3], 0.0359 µM.
As for `CN(C)C1CCN(c2cccc3c2C[C@H](CN(C)[C@H]2CCCc4cccnc42)NC3)C1` (single isomer, unassigned; 37), the remaining at 10 min in data set [5] was found to be 18.5%; in data set [2], 67.5%; in data set [4] it was 4.55%. Further, in data set [1], the Papp at 4 h came out at 1.6 ×10⁻⁶ cm/s. Also, the IC50 is 12.3 µM in the data set “cells”, 15.4 µM on Cytochrome P450 2D6, over 20 µM against Cytochrome P450 3A4 and 0.0109 µM in [3].
As for `CN1CC[C@H]2CN(c3cccc4c3C[C@H](CN(C)[C@H]3CCCc5cccnc53)NC4)C[C@H]21`, the figures for the remaining at 10 min in data set [5], in data set [2] and in data set [4] were 24%, 87.3% and 1.78%, respectively. Further, the Papp at 4 h in data set [1] was 0.9 ×10⁻⁶ cm/s. The IC50 in the data set “cells” is 11.9 µM; at Cytochrome P450 2D6, 18.6 µM; against Cytochrome P450 3A4, over 20 µM; in data set [3], 0.0114 µM.
Take `CN(C[C@H]1Cc2c(cccc2N[C@H]2CC[C@H](N)CC2)CN1)[C@H]1CCCc2cccnc21`: the remaining at 10 min in data set [5] was 100%; in [2], 100%; in [4], 75%. Also, the values for the IC50 in “cells”, at Cytochrome P450 2D6 and at Cytochrome P450 3A4 were 0.826 µM, over 20 µM and over 20 µM, respectively.
`CN(C[C@H]1Cc2c(cccc2NC2CCNCC2)CN1)[C@H]1CCCc2cccnc21`: the remaining at 10 min in data set [5] is 10.9%; in data set [2] it was 75%; in [4], 9.79%. For the same compound, the IC50 is over 16.7 µM in “cells”, over 20 µM at Cytochrome P450 2D6, over 20 µM against Cytochrome P450 3A4 and 0.0181 µM in data set [3].
Consider `NCCCCN(Cc1nc2ccccc2[nH]1)[C@H]1CCCc2cccnc21` [MAVORIXAFOR], for which the bioavailability (as a rule, the share of a dose that reaches the circulation, judged against a reference dose that is usually intravenous) in [6] worked out at 2.4%. In data set [7], the Vd was 32.2 L/kg. In addition, the AUC(0-t) (in general, the area under the concentration-time curve up to a stated or last time point) in data set [8] worked out at 101 ng·h/mL. Moreover, in data set [9], the half-life (commonly the time in which the quantity being followed falls by half) is 3.1 h.
On to `CN(C[C@H]1Cc2c(cccc2N2CCC(N)CC2)CN1)[C@H]1CCCc2cccnc21`, for which the remaining at 10 min in [5] is 70.3%; in [2] it was 80.8%; in data set [4] it was 38.4%. Besides, the IC50 is over 33.3 µM in “cells”, 3.96 µM on Cytochrome P450 2D6, over 20 µM at Cytochrome P450 3A4 and 0.0334 µM in [3].
As to `CN1C[C@@H]2CN(c3cccc4c3C[C@H](CN(C)[C@H]3CCCc5cccnc53)NC4)C[C@@H]2C1`, the values for the remaining at 10 min in data set [5], in [2] and in [4] were 32.9%, 100% and 35.3%, respectively. Besides, the Papp at 4 h in data set [1] amounted to 0.5 ×10⁻⁶ cm/s. Besides, the IC50 was over 33.3 µM in “cells”, over 20 µM at Cytochrome P450 2D6, over 20 µM against Cytochrome P450 3A4 and 0.00956 µM in [3].
In the case of `CN(C[C@H]1Cc2c(cccc2N2C[C@H]3CNC[C@H]3C2)CN1)[C@H]1CCCc2cccnc21`, the remaining at 10 min in data set [5] turned out to be 54.7%; in data set [2] it was 86.7%; in [4], 38.1%. In addition, the IC50 in the data set “cells” was 6.39 µM; on Cytochrome P450 2D6, 7.81 µM; against Cytochrome P450 3A4, over 20 µM; in data set [3] it was 0.0103 µM.
Regarding `CN(C[C@H]1Cc2c(cccc2N2C[C@H]3CCN(C)[C@H]3C2)CN1)[C@H]1CCCc2cccnc21`, the Papp at 4 h in data set [1] worked out at 1.9 ×10⁻⁶ cm/s. The IC50 in “cells” was 2.9 µM; at Cytochrome P450 2D6, 17.3 µM; against Cytochrome P450 3A4, over 20 µM; in [3] it was 0.0187 µM. Further, the values for the remaining at 10 min in data set [2] and in data set [4] were 97.6% and 11.2%, respectively.
